# Source: US11667666B2, “Methods and compositions for treatment of cancer” (CFD Research Corporation, priority 2020, dated 2023)
# Tested on: PANC-1 cells
# Assay: Cell Titer-Glo luminescent cell viability assay, in vitro compound screening against pancreatic cancer cell lines
# Assay type: cell-based
# Details: 24 and 48-hour post dosing; 10 nM, 100 nM, 1 μM, 10 μM, and 100 μM; n=4
# Description: In vitro compound screening against pancreatic cancer cell lines for IC50 determination. […] ASPC-1, BXPC-3, MIA-PaCa-2, and PANC-1 cell lines were obtained from ATCC. […] It should be noted that PANC-1, MIA-PaCa-2 and BxPC-3 cell-lines are gemcitabine-resistant cell-lines.
# The IC50 was calculated using the following Log (inhibitor) versus Response equation: Y=Bottom+(Top−Bottom)/(1+10^((X-Log IC50))). Representative data and calculated IC50 values using the assay for representative compounds are shown FIGS. 4-7.
row,Compound,inhibition of cell-proliferation
1,"CC1(C)O[C@@H]2C[C@H]3[C@@H]4CCC5=CC(=O)C=C[C@]5(C)[C@H]4[C@@H](O)C[C@]3(C)[C@]2(C(=O)CO)O1 [Compound 7, desonide]",did not show any appreciable inhibition of cell-proliferation
2,bentiromide [Compound 5],did not show any appreciable inhibition of cell-proliferation
3,glimepiride [Compound 8],did not show any appreciable inhibition of cell-proliferation
